Experimental data taken from patent US20260174860A1, “HYBRID COMPOUNDS OF SCLAREOL AND DOXORUBICIN, THEIR SYNTHESIS AND APPLICATION” (INSTITUTE FOR BIOLOGICAL RESEARCH "SINISA STANKOVIC" - …, priority 2023, published 2026).

Columns and labels:
breast cancer cell lines = details: 0.1 μM DOX alone or combined with 50 μM SC; cited from earlier work
[1] = test system: glioblastoma cell lines U87, U87-TxR and U251; assay: DOX accumulation test, flow cytometry; type: cell-based, human; details: 20 μM and 50 μM SC with 20 μM DOX, 60 min
Protocol: (§1) • a) First, DOX accumulation test was performed on three glioblastoma cell lines, U87, U87-TxR, and U251. Cells were trypsinized and counted, and then 100,000 cells per sample were collected in a tube for flow cytometry and resuspended in 500 μL of culture medium. Cells were treated with 20 μM and 50 µM SC. Immediately after SC treatment, cells were treated with 20 μM DOX, and samples were incubated at 37° C. in a humid atmosphere with 5% CO2 for 60 min. After the accumulation period, the samples were centrifuged, washed twice with cold Phosphate Buffered Saline (PBS), and finally resuspended in 1 mL of PBS. The fluorescence of the samples was read on the FL2 (red channel) of a cytofluorimeter (Partec, Munster, Germany), and the results were analyzed with the software package Summit 4.3. • b) Secondly, DOX and rhodamine 123 accumulation test was performed on non-small cell lung carcinoma cell lines NCI-H460 and NCI-H460/R. Cells were trypsinized and counted, and then 100,000 cells per sample were collected in a tube for flow cytometry and resuspended in 500 μl of culture medium. Cells were treated with 50 μM SC. Immediately after treatment, 5 μM Rho123 was added to one group of samples and the other 20 μM DOX. […] The samples were analyzed using a flow cytometer, reading for rhodamine 123 on FL1 (green channel) and DOX on FL2 (red channel). […]

[2] = target: T1, P-glycoprotein activity in NCI-H460/R (Homo sapiens, UniProt P08183); assay: DOX and rhodamine 123 accumulation test, flow cytometry; type: cell-based
T1 construct: obtained by successive exposure of NCI-H460 cells to increasing concentrations of DOX; endogenous in cells; host or cells: NCI-H460/R (doxorubicin-selected from NCI-H460)
Protocol: as §1

[3] = test system: P-glycoprotein-deficient NCI-H460 cells; assay: as above; type: cell-based, human; details: 50 μM SC
Protocol: as §1

T1 sequence (P08183 whole entry): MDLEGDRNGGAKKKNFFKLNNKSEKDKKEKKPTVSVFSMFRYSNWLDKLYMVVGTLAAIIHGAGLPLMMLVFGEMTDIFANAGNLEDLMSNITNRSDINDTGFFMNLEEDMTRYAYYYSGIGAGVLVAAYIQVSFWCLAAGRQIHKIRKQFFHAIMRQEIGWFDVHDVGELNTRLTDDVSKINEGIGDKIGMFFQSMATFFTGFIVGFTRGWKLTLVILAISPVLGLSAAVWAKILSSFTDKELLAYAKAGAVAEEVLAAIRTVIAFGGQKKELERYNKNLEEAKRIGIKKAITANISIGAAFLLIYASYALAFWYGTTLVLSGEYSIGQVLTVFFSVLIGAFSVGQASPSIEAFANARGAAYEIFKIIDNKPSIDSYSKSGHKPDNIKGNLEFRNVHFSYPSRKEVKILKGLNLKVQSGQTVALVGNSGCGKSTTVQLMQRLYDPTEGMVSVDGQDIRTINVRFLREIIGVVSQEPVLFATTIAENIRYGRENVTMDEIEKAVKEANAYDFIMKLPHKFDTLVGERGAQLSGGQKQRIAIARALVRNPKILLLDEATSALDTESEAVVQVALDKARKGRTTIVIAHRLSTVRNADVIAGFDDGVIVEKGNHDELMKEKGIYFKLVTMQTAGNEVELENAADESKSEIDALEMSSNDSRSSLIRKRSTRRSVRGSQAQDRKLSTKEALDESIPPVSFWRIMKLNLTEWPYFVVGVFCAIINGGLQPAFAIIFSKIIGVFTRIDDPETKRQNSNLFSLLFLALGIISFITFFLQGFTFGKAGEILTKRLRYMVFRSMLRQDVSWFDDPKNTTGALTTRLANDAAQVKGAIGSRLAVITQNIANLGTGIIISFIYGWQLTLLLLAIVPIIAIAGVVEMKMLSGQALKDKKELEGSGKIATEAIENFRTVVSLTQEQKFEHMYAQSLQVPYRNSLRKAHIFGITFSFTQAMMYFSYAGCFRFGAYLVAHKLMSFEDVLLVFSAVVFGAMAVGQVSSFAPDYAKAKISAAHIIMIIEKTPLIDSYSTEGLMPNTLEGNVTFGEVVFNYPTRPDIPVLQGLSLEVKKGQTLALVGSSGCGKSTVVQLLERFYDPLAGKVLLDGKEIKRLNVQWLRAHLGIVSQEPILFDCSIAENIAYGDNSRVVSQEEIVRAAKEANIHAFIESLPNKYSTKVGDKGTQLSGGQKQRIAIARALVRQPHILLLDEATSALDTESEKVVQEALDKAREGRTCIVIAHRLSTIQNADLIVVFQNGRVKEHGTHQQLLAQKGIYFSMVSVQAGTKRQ

| SMILES | rate of cell growth (breast cancer cell lines) | accumulation of DOX [1] | accumulation of DOX ([2]; 50 μM SC with 20 μM DOX, 60 min) | accumulation of rhodamine 123 / P-glycoprotein activity ([2]; 50 μM SC with rhodamine 123, 30 min) | DOX or rhodamine 123 accumulation [3] |
| --- | --- | --- | --- | --- | --- |
| COc1cccc2c1C(=O)c1c(O)c3c(c(O)c1C2=O)C[C@@](O)(C(=O)CO)C[C@@H]3O[C@H]1C[C@H](N)[C@H](O)[C@H](C)O1 [DOX, doxorubicin] | 76% |  |  |  |  |
| C=C[C@](C)(O)CC[C@@H]1[C@@]2(C)CCCC(C)(C)[C@@H]2CC[C@@]1(C)O [SC, sclareol] |  | increase the accumulation of DOX | increased | inhibition of P-glycoprotein activity | did not show any increase |
